# Test results: patent US4424220A, “Treatment of giardiasis and trichomoniasis” (priority 1982, dated 1984)
# Read-outs that look alike come from different tables or passages of the source.
# What was measured:
# [1] = cited from earlier work
# Giardia lamblia [2] = settings: humans; background, The New York Times, June 10, 1980; cited from earlier work
# Giardia lamblia [3] = experiment: In vitro anti-Giardia lamblia activity (viable organisms counted by hemacytometer, 50% inhibition of growth); type: cell-based; settings: Giardia duodenalis, read-out: Anti-G. lamblia ED50
# Method: About 1.0-2.0 ml of a nutrient medium, for example, the modified Diamond's TPS medium at pH 7.05, together with about 10% by volume of heat-inactiviated serum and about 1% by volume of antibiotic-antimycotic solution is placed in each well of a multiwell plate. To this mixture, an aliquot of a suspension of G. lamblia cells containing about 10^6 organisms is added. Subsequently, each well is inoculated with a known concentration of one of the active compounds. The multiwell plate containing the individual culture samples is incubated under anaerobic conditions at about 37° C. for about 16-24 hrs. The number of viable cells remaining in each well are then counted, such as with a hemacytometer. […]
# In each well of a multiwell plate is placed 1.4 ml of media mix containing Diamond's TPS medium (see Table 2) at pH 7.05, 10% by volume of heat-inactivated fetal bovine serum, and 1% by volume of an antibiotic-antimycotic solution (see Table 3). […] The cells are resuspended in a small volume of the Diamond's medium, counted, and each well inoculated with approximately 10^6 organisms. […] After 24 hours of incubation each well is mixed and counted for viable organisms using a hemacytometer. The percentage of survival is determined by comparing the treated wells to controls treated with dimethylsulfoxide. […]
# T. vaginalis = experiment: Anti-T. vaginalis activity; type: cell-based, Trichomonas vaginalis; settings: procedure of Example 2; refers to Table 1
# T. foetus = experiment: In vitro anti-Trichomonas foetus activity (50% inhibition of growth); type: cell-based, Trichomonas foetus KV1; settings: for IC50: Tritrichomonas foetus, read-out: Anti-T. foetus ED50
# Method: The activity of these compounds against Giardia lamblia and Trichomonas foetus are shown by the following test:
# About 1.0-2.0 ml of a nutrient medium, for example, the modified Diamond's TPS medium at pH 7.05, together with about 10% by volume of heat-inactiviated serum and about 1% by volume of antibiotic-antimycotic solution is placed in each well of a multiwell plate. To this mixture, an aliquot of a suspension of G. lamblia cells containing about 10^6 organisms is added. Subsequently, each well is inoculated with a known concentration of one of the active compounds. The multiwell plate containing the individual culture samples is incubated under anaerobic conditions at about 37° C. for about 16-24 hrs. The number of viable cells remaining in each well are then counted, such as with a hemacytometer. The percentage of survival is determined by comparison with controls inoculated with DMSO (dimethylsulfoxide) and the effective concentration (in parts per million) for 50% inhibition of growth (ED50) is determined. It is established that the lower the number of the value of ED50, the higher the activity of the active compound.
# In each well of a multiwell plate is placed 1.4 ml of media mix containing Diamond's TPS medium (see Table 2) at pH 7.05, 10% by volume of heat-inactivated fetal bovine serum, and 1% by volume of an antibiotic-antimycotic solution (see Table 3). A suspension of Giardia lamblia is centrifuged at 2,500 xg. for 6 minutes. The cells are resuspended in a small volume of the Diamond's medium, counted, and each well inoculated with approximately 10^6 organisms. A stock solution of fluorouracil is made at a concentration of 150 μg/ml. The wells are then inoculated with various concentrations of the drug. The plates are incubated for 24 hours at 37° C. in an anaerobic Gas Pak jar. After 24 hours of incubation each well is mixed and counted for viable organisms using a hemacytometer. The percentage of survival is determined by comparing the treated wells to controls treated with dimethylsulfoxide. […]
smiles,measurement,setting,value
CCN(CC)CCCC(C)Nc1c2ccc(Cl)cc2nc2ccc(OC)cc12 (stereo not drawn) [Atabrine],adverse side effects,[1]; in vivo,known to cause adverse side effects
same,treatment of giardiasis infection,Giardia lamblia [2],successfully treated
"Cc1ncc([N+](=O)[O-])n1CCO [Flagyl, metronidazole]",adverse side effects,[1]; in vivo,known to cause adverse side effects
same,treatment of giardiasis infection,Giardia lamblia [2],successfully treated
"[O-][n+]1ccnc(O)c1 [emimycin, 2-hydroxypyrazine-4-oxide]",IC50,"Giardia lamblia [3]; in vitro, effective concentration for 50% inhibition of growth, about 10^6 organisms per well, 37° C., anaerobic, 16-24 hrs (Example 1: 24 hours), controls with DMSO",22 µg/mL
same,anti-T. vaginalis activity (in words),T. vaginalis,active anti-T. vaginalis agents
same,IC50,"T. foetus; in vitro, 50% inhibition of growth, T. foetus KV1 in Example 2, 37° C., 24 hours",< 1 µg/mL
"O=c1[nH]cc(F)c(=O)[nH]1 [fluorouracil, 5-fluoro-2,4-(1H,3H)pyrimidenedione]",IC50,Giardia lamblia [3],100 µg/mL
same,IC50,T. foetus; 24 h,3 µg/mL
same,anti-T. foetus activity (in words),"T. foetus; in vitro, T. foetus KV1, 37° C., 24 hours",effective anti-T. foetus agent
O=C1OCCN1N=Cc1ccc([N+](=O)[O-])o1 [furazolidione],adverse side effects,"[1]; humans, background, The New York Times, June 10, 1980",known to cause adverse side effects
same,treatment of giardiasis infection,Giardia lamblia [2],successfully treated
